Test results taken from article PMC10107299, “Neutralizing the Impact of the Virulence Factor LecA from Pseudomonas aeruginosa on Human Cells with New Glycomimetic Inhibitors” (Angewandte Chemie (International Ed. in English), 2023).

Experiments:
[1] = In vivo pharmacokinetic study in mice; parameters: species or system CD-1 mice; conditions: 1 mg kg^−1 i.v.; for Cmax: male, CD-1, mouse, urine, iv
Method: Encouraged by these promising in vitro results, an in vivo pharmacokinetic study was conducted for H2 and L2 in mice (1 mg kg^−1, i. v.) and in rats for L2 (10 mg kg^−1, i. v.). Compound concentrations were monitored in plasma and urine (Figure 6). H2 and L2 were cleared from mouse plasma within 1 h. Both compounds rapidly reached high concentrations in urine, several orders of magnitude above their respective in vitro LecA binding affinity. In fact, concentrations above the K ds were detected over the entire observation period of 5 h. […] In rats, higher amounts of L2 were detected both in plasma and urine, not solely corresponding to the 10‐fold increased dose. […] Importantly, high levels of L2 were present in rat urine even 24 h after administration.
Pharmacokinetic studies in mice
For pharmacokinetic experiments, outbred male CD-1 mice (Charles River, Germany), 4-weeks-old, were used. The animal studies were conducted in accordance with the recommendations of the European Community (Directive 86/609/EEC, 24 November 1986). All animal procedures were performed in strict accordance with the German regulations of the Society for Laboratory Animal Science (GV-SOLAS) and the European Health Law of the Federation of Laboratory Animal Science Associations (FELASA). Animals were excluded from further analysis if sacrifice was necessary according to the humane endpoints established by the ethical board. All experiments were approved by the ethical board of the Niedersächsisches Landesamt für Verbraucherschutz und Lebensmittelsicherheit, Oldenburg, Germany (33.19-42502-04-20/3522). L2 and H2 were dissolved in water and administered in individual PK studies (N = 2 per study) at 1 mg/kg intravenously. Up to 25 µl blood was collected from the lateral tail vein and time points t = 0.25, 0.5, 1 and 3 hours. At t = 5 hours animals were euthanized to collect blood. At time points t = 0.25, 0.5, 1, 3 and 5 hours spontaneous urine was collected as well. Whole blood was collected into Eppendorf tubes coated with 0.5 M EDTA and immediately spun down at […]
15870 x g for 10 min at 4 °C. […]
Rats were provided with a catheter in the jugular vein 2 - 3 days prior to drug administration and blood sampling. According to national animal welfare guidelines, rats were treated once with Carprofen (5 mg/kg) directly after catheterization. Catheter was rinsed daily with K3EDTA. […]
First, a calibration curve was prepared by spiking different concentrations of L2 and H2 into mouse plasma, rat plasma or mouse urine (matrix for mouse and rat PK samples) from CD-1 mice. […] Samples from the mouse PK study with H2 in mice and from the rat PK study with L2 were analyzed via HPLC-MS/MS as described in the HPLC-MS analysis section above. PK samples from the mouse PK study with L2 were analyzed using an Agilent 1290 […]

plasma protein [2] = assay: Plasma protein binding (rapid equilibrium device), murine plasma; type: in vitro ADME, mouse; conditions: 1 µM
Method: (§1) mixer (Eppendorf). Acetonitrile and caffeine were dispensed using a Mantis Formulatrix. Then samples were centrifuged for 20 min at 2.270 x g at 4 °C and the supernatants were transferred to 96-well Greiner V-bottom plates. Peak areas of each compound and of the internal standard were analyzed using the MultiQuant 3.0 software (AB Sciex). Peak areas of the respective compound were normalized to the internal standard peak area and to the respective peak areas at time point 0 min: (C/D)/(A/B) with A: peak area of the compound at time point 0 min, B: peak area of the internal standard at time point 0 min, C: peak area of the compound at the respective time point, D: peak area of the internal standard at the respective time point. […]
(§2) Assessment of plasma protein binding
(§3) Plasma protein binding was assessed using the rapid equilibrium device (RED) system from ThermoFisher. Compounds were dissolved in DMSO. […]
(§4) high plasma protein binding. Compounds were diluted in murine plasma (from CD-1 mice, pooled) or in human plasma (human donors, both genders, pooled) to a final concentration of 1 µM. Dialysis buffer and plasma samples were added to the respective chambers according the manufacturer’s protocol. The RED plate was sealed with a tape and incubated at 37 °C for 2 hours at 800 rpm on an Eppendorf MixMate vortex-mixer. Then samples were withdrawn from the respective chambers. To 25 µL of each dialysis sample, 25 µL of plasma and to 25 µL of plasma sample, 25 µL of dialysis buffer was added. Then 150 µL ice-cold extraction solvent (ACN/H2O (90:10) containing 12.5 ng/mL caffeine as internal standard) was added. Samples were incubated for 30 min on ice. Then samples were centrifuged at 4 °C at 2270 x g for 10 min.
(§5) Supernatants were transferred to Greiner V-bottom 96-well plates and sealed with a tape. The […]
(§6) percentage of bound compound was calculated as follows:
(§7) (1) % free = (concentration buffer chamber / concentration plasma chamber) *100 […]
(§8) Samples were analyzed using an Agilent 1290 Infinity II HPLC system coupled to an AB Sciex QTrap 6500plus mass spectrometer. LC conditions were as follows: column: Agilent […]
(§9) Zorbax Eclipse Plus C18, 50x2.1 mm, 1.8 µm; temperature: 30 °C; injection volume: 5 µL per […]
(§10) sample; flow rate: 700 µL/min. Samples were run under acidic and buffered conditions.
(§11) Solvents for acidic conditions: A1: water + 0.1% formic acid; solvent B1: 95% acetonitrile/5% […]
(§12) H2O + 0.1% formic acid; solvents for buffered conditions: A2: 95% water + 5% acetonitrile + […]
(§13) 5 mM ammonium acetate + 40 µL/L acetic acid; B2: 95% acetonitrile + 5% water + 5 mM […]
(§14) ammonium acetate + 40 µL/L acetic acid. The same gradient was applied for acidic and […]
(§15) buffered conditions: 99% A at 0 min, 99% A until 1 min, 99% - 0% A from 1 min to 4.0 min, […]
(§16) 0% A until 5.0 min. Mass transitions for controls and compounds are depicted in the following […]

plasma protein [3] = assay: Plasma protein binding (rapid equilibrium device), human plasma; type: in vitro ADME; conditions: 1 µM
Method: as §1, §2, §3, §4, §5, §6, §7, §8, §9, §10, §11, §12, §13, §14, §15, §16

SMILES	Time to clearance from mouse plasma [1]	Cmax [1]	PPB Mouse (plasma protein [2])	PPB Human (plasma protein [3])
O=C(CCc1ccc(O[C@@H]2O[C@H](CO)[C@H](O)[C@H](O)[C@H]2O)cc1)Nc1ccc(OCCOc2ccc(NC(=O)CCc3ccc(O[C@@H]4O[C@H](CO)[C@H](O)[C@H](O)[C@H]4O)cc3)cn2)nc1 [Compound H2]	≤ 1 h	63 µM	97.6 ± 2.1%	
O=C(CCc1ccc(O[C@@H]2O[C@H](CO)[C@H](O)[C@H](O)[C@H]2O)cc1)Nc1ccc(CCc2ccc(NC(=O)CCc3ccc(O[C@@H]4O[C@H](CO)[C@H](O)[C@H](O)[C@H]4O)cc3)cc2S(=O)(=O)O)c(S(=O)(=O)O)c1 [Compound L2]	≤ 1 h	13.4 µM	14.5 ± 6.8%	38.5 ± 12.4%
